# Results as given in patent publication US20100260852A1, “LAXATIVE AGENT” (priority 2007, published 2010).
# Assays:
# Assay type in all cases: in vivo, rat
# Details in all cases: 300 mg/Kg p.o.
# male rats (SPF) [1] = experiment: Water immersion stress gastric mucosa damage test
# Method: A water immersion stress gastric mucosa damage test was conducted on male rats (SPF) using the composite magnesium oxide particles obtained in Example 5. For comparison, magnesium oxide manufactured by Kyowa Chemical Industry Co., Ltd. was used.
# (§1) administration route: oral administration applied dose: 5 mL/Kg administration means: administered by using a disposable injection cylinder and a sonde for oral administration administration time: administered 60 minutes before the preparation of a gastric mucosa damaged model
# (§2) After about 24 hours of fasting, the rats were put into a stress cage (manufactured by Natsume Seisakusho Co., Ltd.), and the cage was immersed in a water tank at 23° C. 6 hours after that, the blood was removed from the rats to kill them under anesthesia with pentobarbital sodium (40 mg/Kg, i.p.), and the stomachs of these rats were extracted. 10 mL of a 1% formalin solution was injected into the stomachs to immerse them in the solution for 10 minutes or more. The stomachs were cut open along the greater curvature to measure the length (mm) of a damage by a stereomicroscope. The total of damages of each rat was taken as the damage coefficient of the rat.
# male rats (SPF) [2] = experiment: Gastric ulceration test (acetic acid ulceration models)
# Method: The influence of the composite magnesium oxide particles obtained in Example 3 upon gastric ulceration was investigated using male rats (SPF). For comparison, magnesium oxide particles (MgO) manufactured by Kyowa Chemical Industry Co., Ltd. were used. The rats were abdominally operated under anesthesia with pentobarbital sodium (10 mg/Kg, i.p.), 30 μL of 20% acetic acid was injected into the submucosal coat at the boundary between the body of stomach and the vestibular region of the pyloric from the serosal side to prepare acetic acid ulceration models. […] On the day following the last administration, the stomachs of the models were extracted under anesthesia with pentobarbital sodium (40 mg/Kg, i.p.) to measure the long diameter and short diameter (mm) of an ulcer.
# male rats (SPF) [3] = experiment: Ethanol-inducted gastric mucosa damage test
# Method: as §1, §2
# An ethanol-inducted gastric mucosa damage test was conducted on male rats (SPF) by using the composite magnesium oxide particles obtained in Example 5. For comparison, magnesium oxide manufactured by Kyowa Chemical Industry Co., Ltd. was used.
# After about 24 hours of fasting, 1 mL of ethanol (99.5%) was orally administered to each rat. […]
# male rats (SPF) [4] = experiment: Indometacin-inducted gastric mucosa damage test
# Method: as §1, §2
# An indometacin-inducted gastric mucosa damage test was conducted on male rats (SPF) by using the composite magnesium oxide particles obtained in Example 5. For comparison, magnesium oxide manufactured by Kyowa Chemical Industry Co., Ltd. was used.
# After about 24 hours of fasting, 30 mg/Kg of indometacin (15 mg/mL: suspended by using a 0.5% methylcellulose aqueous solution) was subcutaneously administered to each rat. […]
# male rats (SPF) [5] = experiment: Aspirin-inducted gastric mucosa damage test
# Method: as §1, §2
# An aspirin-inducted gastric mucosa damage test was conducted on male rats (SPF) by using the composite magnesium oxide particles obtained in Example 5. For comparison, magnesium oxide manufactured by Kyowa Chemical Industry Co., Ltd. was used.
# After about 24 hours of fasting, 125 mg/Kg of aspirin (62.5 mg/mL: suspended by using a methylcellulose aqueous solution) was orally administered to each rat twice every 2 hours. […]
structure (smiles),measurement,setting,value
"[O]=[Mg] [Comparative example, magnesium oxide]",Damage coefficient (Lesions),"male rats (SPF) [1]; 60 min before, water immersion stress 23° C., 6 hours, 6 rats",18.1 ± 3.6 mm
same,Inhibition ratio,male rats (SPF) [1]; water immersion stress,56%
same,Inhibition ratio of gastric lesion,male rats (SPF) [2],19%
same,Damage coefficient (Lesions area),"male rats (SPF) [2]; once each day for 10 days, 6 rats",5.2 ± 1.0 mm^2
same,Damage coefficient (Lesions),"male rats (SPF) [3]; 1 mL ethanol (99.5%) orally, 1 hour, 6 rats",25.5 ± 8.9 mm
same,Inhibition ratio,male rats (SPF) [3]; ethanol-inducted,48%
same,Damage coefficient (Lesions),"male rats (SPF) [4]; indometacin 30 mg/Kg s.c., 5 hours, 6 rats",0.0 ± 0.0 mm
same,Inhibition ratio,male rats (SPF) [4]; indometacin-inducted,100%
same,Damage coefficient (Lesions),"male rats (SPF) [5]; aspirin 125 mg/Kg orally twice, 4 hours after second, 6 rats",27.8 ± 4.3 mm
same,Inhibition ratio,male rats (SPF) [5]; aspirin-inducted,43%
